Reference: the supplement of paper PMC11061612

What was measured:
Assay in all cases: combination Emax (second highest fraction inhibited in the dose matrix, 72 h); higher = more inhibition; extreme values may be limits of the assay
[1] = test system: Mo-T (Other Blood Carcinomas)
How it was run: (§1)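 Cell lines in DMEM/F12 or RPMI with 10% FBS were plated in 1536-well plates, held 24 hours at 37°C, 5% CO2, then given two-drug dose matrices for 72 hours (DMSO typically 0.2%). Viability was read by CellTiter-Glo 2.0 luminescence and scaled as inhibition from 0 (vehicle wells) to 1 (blank wells). Combination Emax is the second-highest inhibition in the matrix; Bliss excess is observed combination effect minus expected EA + EB − EA·EB, EA and EB being single-agent effects.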

[2] = test system: NCI-H650 (Lung Adenocarcinoma)
How it was run: as §1

[3] = test system: SK-LU-1 (Lung Adenocarcinoma)
How it was run: as §1

[4] = test system: KGN (Other Solid Carcinomas)
How it was run: as §1

[5] = test system: EFO-21 (Ovarian Carcinoma)
How it was run: as §1

[6] = test system: NCI-H522 (Lung Adenocarcinoma)
How it was run: as §1

[7] = test system: MV-4-11 (Acute Myeloid Leukemia)
How it was run: as §1

[8] = test system: HCC1500 (Breast Carcinoma)
How it was run: as §1

[9] = test system: MOG-G-UVW (Low Grade Glioma)
How it was run: as §1

[10] = test system: DU-145 (Prostate Carcinoma)
How it was run: as §1

[11] = test system: COLO-668 (Small Cell Lung Carcinoma)
How it was run: as §1

[12] = test system: OE33 (Esophageal Adenocarcinoma)
How it was run: as §1

[13] = test system: HAL-01 (B-Lymphoblastic Leukemia)
How it was run: as §1

[14] = test system: ME-180 (Cervical Carcinoma)
How it was run: as §1

[15] = test system: OACM5-1 (Esophageal Adenocarcinoma)
How it was run: as §1

[16] = test system: G-401 (Other Solid Carcinomas)
How it was run: as §1

Hey (Ovarian Carcinoma) = test system: Hey (Ovarian Carcinoma)
How it was run: as §1

[17] = test system: NCI-H2122 (Lung Adenocarcinoma)
How it was run: as §1

[18] = test system: CADO-ES1 (Ewing's Sarcoma)
How it was run: as §1

EW-1 (Ewing's Sarcoma) = test system: EW-1 (Ewing's Sarcoma)
How it was run: as §1

SMILES: CS(=O)(=O)CCNCc1ccc(-c2ccc3ncnc(Nc4ccc(OCc5cccc(F)c5)c(Cl)c4)c3c2)o1 [Lapatinib] + NC1(c2ccc(-c3nc4ccn5c(=O)[nH]nc5c4cc3-c3ccccc3)cc2)CCC1 [MK-2206] (first compound max 10 µM, 7x7, partner max 10 µM)
- combination Emax [1]: 0.948
- combination Emax [2]: 0.31
- combination Emax [3]: 0.335
- combination Emax [4]: 0.85
- combination Emax [5]: 0.321
- combination Emax [6]: 0.322
- combination Emax [7]: 0.961
- combination Emax [8]: 0.901
- combination Emax [9]: 0.648
- combination Emax [10]: 0.297
- combination Emax [11]: 0.508
- combination Emax [12]: 0.849
- combination Emax [13]: 0.951
- combination Emax [14]: 0.758

SMILES: CN(CCO)CC[C@H](CSc1ccccc1)Nc1ccc(S(=O)(=O)NC(=O)c2ccc(N3CCC([C@@H](O)c4ccccc4-c4ccc(Cl)cc4)CC3)cc2)cc1S(=O)(=O)C(F)(F)F [AZD4320] + C=CCn1c(=O)c2cnc(Nc3ccc(N4CCN(C)CC4)cc3)nc2n1-c1cccc(C(C)(C)O)n1 [AZD1775] (first compound max 1 µM, partner max 1 µM)
- combination Emax [1]: 0.984
- combination Emax [2]: 0.564
- combination Emax [15]: 0.635
- combination Emax [3]: 0.542
- combination Emax [4]: 0.784
- combination Emax [5]: 0.53
- combination Emax [6]: 0.237
- combination Emax [7]: 1
- combination Emax [16]: 0.901
- combination Emax [8]: 0.995
- combination Emax [10]: 0.213
- combination Emax (Hey (Ovarian Carcinoma)): 0.673
- combination Emax [17]: 0.953
- combination Emax [18]: 0.566
- combination Emax [12]: 0.492
- combination Emax (EW-1 (Ewing's Sarcoma)): 1
- combination Emax [13]: 1
- combination Emax [14]: 0.581

SMILES: CN(CCO)CC[C@H](CSc1ccccc1)Nc1ccc(S(=O)(=O)NC(=O)c2ccc(N3CCC([C@@H](O)c4ccccc4-c4ccc(Cl)cc4)CC3)cc2)cc1S(=O)(=O)C(F)(F)F [AZD4320] + CN(C)CCCOc1ccc(-c2ccc3ncc4c(c3c2)n(C2CCOCC2)c(=O)n4C)cn1 [AZD0156] (first compound max 1 µM, 7x7, partner max 1 µM)
- combination Emax [1]: 0.483
- combination Emax [2]: 0.203
- combination Emax [15]: 0.433
- combination Emax [3]: 0.322
- combination Emax [4]: 0.425
- combination Emax [5]: 0.179
- combination Emax [6]: 0.0875
- combination Emax [7]: 1
- combination Emax [16]: 0.266
- combination Emax [8]: 0.998
- combination Emax [9]: 0.135
- combination Emax [10]: 0.0779
- combination Emax (Hey (Ovarian Carcinoma)): 0.256
- combination Emax [17]: 0.24
- combination Emax [18]: 0.611
- combination Emax [12]: 0.0749
- combination Emax (EW-1 (Ewing's Sarcoma)): 0.705
- combination Emax [13]: 0.853
- combination Emax [14]: 0.246

SMILES: C=CCn1c(=O)c2cnc(Nc3ccc(N4CCN(C)CC4)cc3)nc2n1-c1cccc(C(C)(C)O)n1 [AZD1775] + CCc1c2c(nc3ccc(O)cc13)-c1cc3c(c(=O)n1C2)COC(=O)[C@]3(O)CC [SN-38] (first compound max 1 µM, partner max 0.3 µM)
- combination Emax [1]: 0.817
- combination Emax [3]: 0.645
- combination Emax [4]: 0.833
- combination Emax [5]: 0.466
- combination Emax [6]: 0.7
- combination Emax [7]: 0.999
- combination Emax [9]: 0.945
- combination Emax [10]: 0.598
- combination Emax [11]: 0.956
- combination Emax [12]: 0.734
- combination Emax [13]: 1
- combination Emax [14]: 0.973

SMILES: O=C(c1cc(Cc2n[nH]c(=O)c3ccccc23)ccc1F)N1CCN(C(=O)C2CC2)CC1 [Olaparib] + CC1(C)CCC(CN2CCN(c3ccc(C(=O)NS(=O)(=O)c4ccc(NCC5CCOCC5)c([N+](=O)[O-])c4)c(Oc4cnc5[nH]ccc5c4)c3)CC2)=C(c2ccc(Cl)cc2)C1 [Venetoclax] (first compound max 10 µM, 7x7, partner max 1 µM)
- combination Emax [1]: 0.186
- combination Emax [3]: 0.2
- combination Emax [4]: 0.292
- combination Emax [5]: 0.0952
- combination Emax [6]: 0.0786
- combination Emax [7]: 1
- combination Emax [9]: 0.257
- combination Emax [10]: 0.126
- combination Emax [11]: 0.255
- combination Emax [12]: 0.139
- combination Emax [13]: 0.926
- combination Emax [14]: 0.14

SMILES: CS(=O)(=O)CCNCc1ccc(-c2ccc3ncnc(Nc4ccc(OCc5cccc(F)c5)c(Cl)c4)c3c2)o1 [Lapatinib] + Cn1cnc2c(F)c(Nc3ccc(Br)cc3Cl)c(C(=O)NOCCO)cc21 [Selumetinib] (first compound max 10 µM, 7x7, partner max 10 µM)
- combination Emax [1]: 0.477
- combination Emax [3]: 0.377
- combination Emax [4]: 0.535
- combination Emax [5]: 0.331
- combination Emax [6]: 0.257
- combination Emax [7]: 0.642
- combination Emax [9]: 0.469
- combination Emax [10]: 0.171
- combination Emax [11]: 0.493
- combination Emax [12]: 0.743
- combination Emax [13]: 0.516
- combination Emax [14]: 0.476

SMILES: C[C@@H](Oc1cc(-c2cnn(C3CCNCC3)c2)cnc1N)c1c(Cl)ccc(F)c1Cl [Crizotinib] + CC1=C(C(=CC=C1)Cl)NC(=O)C2=CN=C(S2)NC3=CC(=NC(=N3)C)N4CCN(CC4)CCO [Dasatinib] (first compound max 10 µM, 7x7, partner max 2 µM)
- combination Emax [1]: 0.383
- combination Emax [3]: 0.479
- combination Emax [4]: 0.978
- combination Emax [5]: 0.701
- combination Emax [6]: 0.339
- combination Emax [7]: 0.985
- combination Emax [9]: 0.928
- combination Emax [10]: 0.462
- combination Emax [11]: 0.415
- combination Emax [12]: 0.853
- combination Emax [13]: 0.961
- combination Emax [14]: 0.644

SMILES: Cc1c2c(nn1C)CSCc1cc(n(C)n1)CSc1cc(c3ccccc3c1)OCCCc1c(C(=O)O)n(C)c3c-2c(Cl)ccc13 [AZD5991] + CS(=O)(=O)CCNCc1ccc(-c2ccc3ncnc(Nc4ccc(OCc5cccc(F)c5)c(Cl)c4)c3c2)o1 [Lapatinib] (first compound max 1 µM, 7x7, partner max 10 µM)
- combination Emax [1]: 0.371
- combination Emax [3]: 0.229
- combination Emax [4]: 0.454
- combination Emax [5]: 0.277
- combination Emax [6]: 0.626
- combination Emax [7]: 1
- combination Emax [9]: 0.311
- combination Emax [10]: 0.198
- combination Emax [11]: 0.285
- combination Emax [12]: 0.529
- combination Emax [13]: 0.965
- combination Emax [14]: 0.492

SMILES: Cc1c2c(nn1C)CSCc1cc(n(C)n1)CSc1cc(c3ccccc3c1)OCCCc1c(C(=O)O)n(C)c3c-2c(Cl)ccc13 [AZD5991] + Nc1ccn([C@@H]2O[C@H](CO)[C@@H](O)C2(F)F)c(=O)n1 [Gemcitabine] (first compound max 1 µM, 7x7, partner max 0.3 µM)
- combination Emax [1]: 0.685
- combination Emax [3]: 0.19
- combination Emax [4]: 0.9
- combination Emax [5]: 0.379
- combination Emax [6]: 0.784
- combination Emax [7]: 1
- combination Emax [9]: 0.857
- combination Emax [10]: 0.441
- combination Emax [11]: 0.829
- combination Emax [12]: 0.543
- combination Emax [13]: 1
- combination Emax [14]: 0.754

SMILES: O=C(c1cc(Cc2n[nH]c(=O)c3ccccc23)ccc1F)N1CCN(C(=O)C2CC2)CC1 [Olaparib] + CN(CC[C@H](CSC1=CC=CC=C1)NC2=C(C=C(C=C2)S(=O)(=O)NC(=O)C3=CC=C(C=C3)N4CCC(CC4)[C@H](C5=CC=CC=C5C6=CC=C(C=C6)Cl)O)S(=O)(=O)C(F)(F)F)CCO [AZD4320] (first compound max 10 µM, 7x7, partner max 1 µM)
- combination Emax [1]: 0.844
- combination Emax [3]: 0.48
- combination Emax [4]: 0.298
- combination Emax [5]: 0.172
- combination Emax [6]: 0.0607
- combination Emax [7]: 1
- combination Emax [9]: 0.344
- combination Emax [10]: 0.0992
- combination Emax [11]: 0.823
- combination Emax [12]: 0.105
- combination Emax [13]: 0.65
- combination Emax [14]: 0.18

SMILES: C=CCn1c(=O)c2cnc(Nc3ccc(N4CCN(C)CC4)cc3)nc2n1-c1cccc(C(C)(C)O)n1 [AZD1775] + Nc1ccn([C@@H]2O[C@H](CO)[C@@H](O)C2(F)F)c(=O)n1 [Gemcitabine] (first compound max 1 µM, partner max 0.3 µM)
- combination Emax [1]: 0.766
- combination Emax [3]: 0.457
- combination Emax [4]: 0.892
- combination Emax [5]: 0.482
- combination Emax [6]: 0.608
- combination Emax [7]: 1
- combination Emax [9]: 0.938
- combination Emax [10]: 0.542
- combination Emax [11]: 0.738
- combination Emax [12]: 0.616
- combination Emax [13]: 1
- combination Emax [14]: 0.94

SMILES: Cc1c2c(nn1C)CSCc1cc(n(C)n1)CSc1cc(c3ccccc3c1)OCCCc1c(C(=O)O)n(C)c3c-2c(Cl)ccc13 [AZD5991] + CC(=O)O[C@H]1C(=O)[C@@]2(C)[C@H]([C@H](OC(=O)c3ccccc3)[C@]3(O)C[C@H](OC(=O)[C@H](O)[C@@H](NC(=O)c4ccccc4)c4ccccc4)C(C)=C1C3(C)C)[C@]1(OC(C)=O)CO[C@@H]1C[C@@H]2O [Paclitaxel] (first compound max 1 µM, 7x7, partner max 3 µM)
- combination Emax [1]: 0.658
- combination Emax [3]: 0.39
- combination Emax [4]: 0.916
- combination Emax [5]: 0.368
- combination Emax [6]: 0.969
- combination Emax [7]: 1
- combination Emax [9]: 0.986
- combination Emax [10]: 0.686
- combination Emax [11]: 0.46
- combination Emax [12]: 0.524
- combination Emax [13]: 0.99
- combination Emax [14]: 0.7

SMILES: CC1(C)CCC(CN2CCN(c3ccc(C(=O)NS(=O)(=O)c4ccc(NCC5CCOCC5)c([N+](=O)[O-])c4)c(Oc4cnc5[nH]ccc5c4)c3)CC2)=C(c2ccc(Cl)cc2)C1 [Venetoclax] + CS(=O)(=O)CCNCc1ccc(-c2ccc3ncnc(Nc4ccc(OCc5cccc(F)c5)c(Cl)c4)c3c2)o1 [Lapatinib] (first compound max 1 µM, 7x7, partner max 10 µM)
- combination Emax [1]: 0.33
- combination Emax [3]: 0.183
- combination Emax [4]: 0.4
- combination Emax [5]: 0.153
- combination Emax [6]: 0.153
- combination Emax [7]: 1
- combination Emax [9]: 0.213
- combination Emax [10]: 0.127
- combination Emax [11]: 0.282
- combination Emax [12]: 0.485
- combination Emax [13]: 0.968
- combination Emax [14]: 0.427

SMILES: C[C@@H](Nc1cc(F)cc(F)c1)c1cc(C(=O)N(C)C)cc2c(=O)cc(N3CCOCC3)oc12 [AZD8186] + C1CN(CCC1(C(=O)N[C@@H](CCO)C2=CC=C(C=C2)Cl)N)C3=NC=NC4=C3C=CN4 [AZD5363] (first compound max 10 µM, 7x7, partner max 10 µM)
- combination Emax [1]: 0.347
- combination Emax [3]: 0.303
- combination Emax [4]: 0.556
- combination Emax [5]: 0.235
- combination Emax [6]: 0.0756
- combination Emax [7]: 0.731
- combination Emax [9]: 0.621
- combination Emax [10]: 0.189
- combination Emax [11]: 0.327
- combination Emax [12]: 0.332
- combination Emax [13]: 0.623
- combination Emax [14]: 0.579
